Species: Rattus norvegicus
Experiment: DrugMatrix - Regimen: Daily Repeat
Type: toxicity, organism-based, Sprague-Dawley
Design: regimen Daily Repeat, gender Male, age 6-8 weeks
Conditions: in vivo, po, route oral GAVAGE, […]; for ABSOLUTE BASOPHIL / ABSOLUTE EOSINOPHIL / ABSOLUTE LYMPHOCYTE / ABSOLUTE MONOCYTE / ABSOLUTE SEGMENTED NEUTROPHIL / BASOPHIL / EOSINOPHIL / ERYTHROCYTE COUNT / HEMATOCRIT / HEMOGLOBIN / LEUKOCYTE COUNT / LYMPHOCYTE / MEAN CORPUSCULAR HEMOGLOBIN / MEAN CORPUSCULAR HEMOGLOBIN CONCENTRATION / MEAN CORPUSCULAR VOLUME / MONOCYTE / NEUTROPHIL / NUCLEATED RED BLOOD CELLS / PLATELET COUNT: tissue Blood; for ALANINE AMINOTRANSFERASE / ALBUMIN / ALKALINE PHOSPHATASE / ASPARTATE AMINOTRANSFERASE / BLOOD UREA NITROGEN / CARBON DIOXIDE / CHLORIDE / CHOLESTEROL / CREATINE PHOSPHOKINASE / CREATININE / GLUCOSE / LACTATE DEHYDROGENASE / LIPASE / PHOSPHORUS / POTASSIUM / SODIUM / TOTAL BILIRUBIN / TOTAL PROTEIN / URIC ACID: tissue Plasma
[1] = 1 mg/kg, 120 h, dose level Low, time 5 day
[2] = 9 mg/kg, 72 h, dose level High, time 3 day
[3] = 9 mg/kg, 120 h, dose level High, time 5 day

O=C(O)COC(=O)Cc1ccccc1Nc1c(Cl)cccc1Cl [ACECLOFENAC]
ABSOLUTE BASOPHIL [1]: 0 CELLS/uL
ABSOLUTE EOSINOPHIL [1]: 38.33 CELLS/uL
ABSOLUTE LYMPHOCYTE [1]: 9464 CELLS/uL
ABSOLUTE MONOCYTE [1]: 76.67 CELLS/uL
ABSOLUTE SEGMENTED NEUTROPHIL [1]: 854.33 CELLS/uL
BASOPHIL [1]: 0%
EOSINOPHIL [1]: 0.33%
ERYTHROCYTE COUNT [1]: 5.79 x10E6/uL
HEMATOCRIT [1]: 35.33%
HEMOGLOBIN [1]: 13.3 G/DL
LEUKOCYTE COUNT [1]: 10.43 x10E3/uL
LYMPHOCYTE [1]: 90.67%
MEAN CORPUSCULAR HEMOGLOBIN [1]: 23 pg
MEAN CORPUSCULAR HEMOGLOBIN CONCENTRATION [1]: 37.7 G/DL
MEAN CORPUSCULAR VOLUME [1]: 61.07 fL
MONOCYTE [1]: 0.67%
NEUTROPHIL [1]: 8.33%
NUCLEATED RED BLOOD CELLS [1]: 0 /100WBC
PLATELET COUNT [1]: 1057.67 x10E3/uL
ALANINE AMINOTRANSFERASE [1]: 60.67 u/L
ALBUMIN [1]: 4.07 G/DL
ALKALINE PHOSPHATASE [1]: 388 u/L
ASPARTATE AMINOTRANSFERASE [1]: 80.67 u/L
BLOOD UREA NITROGEN [1]: 14.33 mg/dL
CARBON DIOXIDE [1]: 30.33 mmol/L
CHLORIDE [1]: 101.33 MEQ/L
CHOLESTEROL [1]: 53.33 mg/dL
CREATINE PHOSPHOKINASE [1]: 180.67 u/L
CREATININE [1]: 0.15 mg/dL
GLUCOSE [1]: 160.67 mg/dL
LACTATE DEHYDROGENASE [1]: 106 u/L
LIPASE [1]: 9 u/L
PHOSPHORUS [1]: 9.9 mg/dL
POTASSIUM [1]: 5.17 MEQ/L
SODIUM [1]: 143 MEQ/L
TOTAL BILIRUBIN [1]: 0.23 mg/dL
TOTAL PROTEIN [1]: 5.8 G/DL
URIC ACID [1]: 0.83 mg/dL
ABSOLUTE BASOPHIL [2]: 0 CELLS/uL
ABSOLUTE EOSINOPHIL [2]: 21.67 CELLS/uL
ABSOLUTE LYMPHOCYTE [2]: 7429.67 CELLS/uL
ABSOLUTE MONOCYTE [2]: 92.33 CELLS/uL
ABSOLUTE SEGMENTED NEUTROPHIL [2]: 1189.67 CELLS/uL
BASOPHIL [2]: 0%
EOSINOPHIL [2]: 0.33%
ERYTHROCYTE COUNT [2]: 5.12 x10E6/uL
HEMATOCRIT [2]: 32.1%
HEMOGLOBIN [2]: 12.63 G/DL
LEUKOCYTE COUNT [2]: 8.73 x10E3/uL
LYMPHOCYTE [2]: 84.67%
MEAN CORPUSCULAR HEMOGLOBIN [2]: 24.73 pg
MEAN CORPUSCULAR HEMOGLOBIN CONCENTRATION [2]: 39.37 G/DL
MEAN CORPUSCULAR VOLUME [2]: 62.73 fL
MONOCYTE [2]: 1.33%
NEUTROPHIL [2]: 13.67%
NUCLEATED RED BLOOD CELLS [2]: 0 /100WBC
PLATELET COUNT [2]: 823.33 x10E3/uL
ALANINE AMINOTRANSFERASE [2]: 57 u/L
ALBUMIN [2]: 3.37 G/DL
ALKALINE PHOSPHATASE [2]: 253 u/L
ASPARTATE AMINOTRANSFERASE [2]: 77.33 u/L
BLOOD UREA NITROGEN [2]: 10.67 mg/dL
CARBON DIOXIDE [2]: 34 mmol/L
CHLORIDE [2]: 99 MEQ/L
CHOLESTEROL [2]: 73.67 mg/dL
CREATINE PHOSPHOKINASE [2]: 625.67 u/L
CREATININE [2]: 0.12 mg/dL
GLUCOSE [2]: 160.67 mg/dL
LACTATE DEHYDROGENASE [2]: 163.33 u/L
LIPASE [2]: 8.67 u/L
PHOSPHORUS [2]: 11.57 mg/dL
POTASSIUM [2]: 6.06 MEQ/L
SODIUM [2]: 143.37 MEQ/L
TOTAL BILIRUBIN [2]: 0.13 mg/dL
TOTAL PROTEIN [2]: 5.3 G/DL
URIC ACID [2]: 1.03 mg/dL
ABSOLUTE BASOPHIL [3]: 0 CELLS/uL
ABSOLUTE EOSINOPHIL [3]: 0 CELLS/uL
ABSOLUTE LYMPHOCYTE [3]: 9903.33 CELLS/uL
ABSOLUTE MONOCYTE [3]: 435.33 CELLS/uL
ABSOLUTE SEGMENTED NEUTROPHIL [3]: 2861.33 CELLS/uL
BASOPHIL [3]: 0%
EOSINOPHIL [3]: 0%
ERYTHROCYTE COUNT [3]: 4.91 x10E6/uL
HEMATOCRIT [3]: 29.6%
HEMOGLOBIN [3]: 11.33 G/DL
LEUKOCYTE COUNT [3]: 13.2 x10E3/uL
LYMPHOCYTE [3]: 75.33%
MEAN CORPUSCULAR HEMOGLOBIN [3]: 23.1 pg
MEAN CORPUSCULAR HEMOGLOBIN CONCENTRATION [3]: 38.33 G/DL
MEAN CORPUSCULAR VOLUME [3]: 60.27 fL
MONOCYTE [3]: 3.33%
NEUTROPHIL [3]: 21.33%
NUCLEATED RED BLOOD CELLS [3]: 0.33 /100WBC
PLATELET COUNT [3]: 1272 x10E3/uL
ALANINE AMINOTRANSFERASE [3]: 58.33 u/L
ALBUMIN [3]: 3.03 G/DL
ALKALINE PHOSPHATASE [3]: 312 u/L
ASPARTATE AMINOTRANSFERASE [3]: 78.33 u/L
BLOOD UREA NITROGEN [3]: 12 mg/dL
CARBON DIOXIDE [3]: 28.33 mmol/L
CHLORIDE [3]: 101.67 MEQ/L
CHOLESTEROL [3]: 58.33 mg/dL
CREATINE PHOSPHOKINASE [3]: 296.67 u/L
CREATININE [3]: 0.2 mg/dL
GLUCOSE [3]: 165 mg/dL
LACTATE DEHYDROGENASE [3]: 151 u/L
LIPASE [3]: 10 u/L
PHOSPHORUS [3]: 10.13 mg/dL
POTASSIUM [3]: 5.79 MEQ/L
SODIUM [3]: 144.97 MEQ/L
TOTAL BILIRUBIN [3]: 0.13 mg/dL
TOTAL PROTEIN [3]: 5.03 G/DL
URIC ACID [3]: 1.1 mg/dL

From ChEMBL document CHEMBL3885881, “DrugMatrix”
